The values below come from BindingDB's records for doi:10.7270/Q2KH0KWR (Burnham Center For Chemical Genomics, 2012).

The first assay deals with T1, Tyrosine-protein phosphatase non-receptor type 5 (Homo sapiens, UniProt P54829).
T1 sequence (P54829 whole entry): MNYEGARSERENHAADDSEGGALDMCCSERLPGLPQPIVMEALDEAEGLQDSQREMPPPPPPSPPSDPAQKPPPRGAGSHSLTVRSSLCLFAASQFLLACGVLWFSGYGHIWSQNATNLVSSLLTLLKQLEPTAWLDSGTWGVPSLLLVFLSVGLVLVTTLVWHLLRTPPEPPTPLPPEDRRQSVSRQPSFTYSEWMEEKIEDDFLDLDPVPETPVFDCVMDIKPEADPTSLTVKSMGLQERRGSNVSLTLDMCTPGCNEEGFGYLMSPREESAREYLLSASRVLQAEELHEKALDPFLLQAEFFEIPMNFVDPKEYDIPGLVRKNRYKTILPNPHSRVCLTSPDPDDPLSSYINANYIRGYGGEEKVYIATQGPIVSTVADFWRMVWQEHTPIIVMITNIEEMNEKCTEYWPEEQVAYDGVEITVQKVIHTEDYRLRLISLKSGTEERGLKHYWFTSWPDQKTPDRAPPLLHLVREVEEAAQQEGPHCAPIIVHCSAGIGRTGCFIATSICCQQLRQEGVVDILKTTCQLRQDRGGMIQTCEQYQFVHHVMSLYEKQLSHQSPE
Description: STEP phosphatase inhibitor potency, dose response, orthogonal assay for STEP inhibitor project, biochemical, colorimetric absorbance (AID 624207).
Conditions: not given
As for `O=C1Nc2ccc3sc4ccccc4c3c2C1=O` [3H-6-Thia-3-aza-cyclopenta[c]fluorene-1,2-dione], the IC50 (commonly the point on the concentration scale where inhibition reaches its midpoint) was over 80 µM.

As for `COc1cc(/C=C2/C(=O)NN(c3cccc(C)c3)C2=O)cc([N+](=O)[O-])c1O` [4-(4-hydroxy-3-methoxy-5-nitrobenzylidene)-1-(3-methylphenyl)-3,5-pyrazolidinedione], the IC50 is over 80 µM. Turning to `CN(C)c1ccc(C(=O)OCC(=O)Nc2ccc(S(N)(=O)=O)cc2)cc1` [4-(dimethylamino)benzoic acid [2-oxo-2-(4-sulfamoylanilino)ethyl] ester], the half-maximal inhibitory concentration (IC50) was found to be 7.9 µM. This lies in the single-digit micromolar range. Consider `Clc1ccc(Cl)c(-c2nc(-c3ccncc3)no2)c1` [4-[5-(2,5-dichlorophenyl)-1,2,4-oxadiazol-3-yl]pyridine], for which the IC50 is over 80 µM. `S=c1[nH]nc(-c2cccnc2)n1N=Cc1ccc(Br)s1` [4-[(E)-(5-bromothiophen-2-yl)methylideneamino]-3-pyridin-3-yl-1H-1,2,4-triazole-5-thione] came in with an IC50 of over 80 µM. For `CCOC(=O)CN1C(=O)S/C(=C/c2ccc(OCc3ccc(C(=O)O)cc3)cc2)C1=O` [4-[[4-[(E)-[3-(2-ethoxy-2-oxoethyl)-2,4-dioxo-5-thiazolidinylidene]methyl]phenoxy]methyl]benzoic acid], the IC50 is over 80 µM. Turning to `O=[N+]([O-])c1ccc(O)c(Nc2ncnc3ccccc23)c1` [4-nitro-2-(4-quinazolinylamino)phenol], the IC50 is over 80 µM. Same read-out and setting: as for `CCc1c(C)[nH]n(-c2ccc(Oc3ccccc3)c(S(=O)(=O)O)c2)c1=O` [5-(4-ethyl-5-methyl-3-oxo-1H-pyrazol-2-yl)-2-phenoxybenzenesulfonic acid], the figure is over 80 µM; as for `Cc1ccc(S(=O)(=O)Cc2ccc(C(=O)O)o2)cc1` [5-(tosylmethyl)-2-furoic acid], over 80 µM; as for `N#C/C(=C\c1ccc(OC(=O)c2ccc(Cl)s2)cc1)c1nc2ccccc2[nH]1` [5-chloro-2-thiophenecarboxylic acid [4-[(E)-2-(1H-benzimidazol-2-yl)-2-cyanoethenyl]phenyl] ester], over 80 µM. As for `NC(=O)c1cc2ccccc2o/c1=N\NC(=O)c1ccccc1O` [(2Z)-2-[[(2-hydroxyphenyl)-oxomethyl]hydrazinylidene]-1-benzopyran-3-carboxamide], the IC50 is 13.7 µM. As to `C=c1c(O)c(O)c(=C2C(=O)C(=O)C(C)C(=O)C2=O)c(O)c1O` (stereo not drawn) [(3E)-5-hydroxy-6-methyl-3-(2,3,5-trihydroxy-4-methyl-6-oxo-1-cyclohexa-2,4-dienylidene)cyclohex-5-ene-1,2,4-trione], the 50% inhibitory concentration (IC50) is over 80 µM. The same measure, in the same setting: under `O=C1C(=O)N(CCCO)C(c2ccc(Br)cc2)C1C(=O)c1ccc(Br)cc1` (stereo not drawn) [(4E)-5-(4-bromophenyl)-4-[(4-bromophenyl)-oxidanyl-methylidene]-1-(3-oxidanylpropyl)pyrrolidine-2,3-dione] stands 41.5 µM; under `COc1cc(C(=S)N2CCCCC2)ccc1O` [(4Z)-2-methoxy-4-[piperidin-1-yl(sulfanyl)methylidene]cyclohexa-2,5-dien-1-one], 15.5 µM; under `COc1cccc(N2[C@@H](CC(=O)O)c3ccc(/C=C/C(=O)O)cc3S2(=O)=O)c1` [(E)-3-[(3S)-3-(carboxymethyl)-2-(3-methoxyphenyl)-1,1-dioxo-3H-1,2-benzothiazol-6-yl]prop-2-enoic acid], over 80 µM.

In turn, `Cc1nnc2sc(-c3ccc(NC(=O)c4ccc(-c5ccc(Cl)cc5Cl)o4)cc3)nn12` [MLS000050448] gave an IC50 of over 80 µM.

For `CCc1ccc(OCC(=O)Nc2ccc(-c3nc4ccccc4o3)c(O)c2)cc1` [MLS000109444], the IC50 was over 80 µM. Consider `C=CC1=C(C(=O)O)N2C(=O)C(NC(=O)Cc3ccccc3)C2SC1` (stereo not drawn) [MLS000123928], for which the IC50 was over 80 µM. Same read-out and setting: under `S=C1N=C2C(=C3SCCS3)CCCC2C(c2ccccc2)N1` (stereo not drawn) [MLS000516376] stands 72.8 µM; under `CCN(CC)P(=O)(NC(=O)C(Cl)(Cl)Cl)N(CC)CC` [MLS000564159], 77.5 µM; under `CCOc1ccc(C(=O)Nc2cc(-c3nc4ccccc4[nH]3)ccc2Cl)cc1[N+](=O)[O-]` [MLS000574482], over 80 µM. The molecule `COCCN(C(=S)Nc1c(C)cc(C)cc1C)C(C)c1cccnc1` (stereo not drawn) [MLS000584539] showed an IC50 of over 80 µM. In turn, `O=C(N/N=C/c1ccc(Cl)c([N+](=O)[O-])c1)c1ccc2c(c1)OCCO2` [MLS000587937] displayed an IC50 of 15.7 µM. Regarding `NS(=O)(=O)c1ccc(N/C(S)=N\CCc2ccccc2)cc1` [MLS000621468], the IC50 is over 80 µM.

Take `CCN1CCN(C(=S)c2ccc(O)cc2)CC1` [MLS000621546]: inhibition was half-maximal at 33.8 µM (IC50). `CN1CCN(C(=S)C(=O)Nc2ccc(Br)cc2)CC1` [MLS000665240] showed an IC50 of 12.6 µM. Still for that read-out and setting: as for `COC(=O)Nc1sc2c(c1C(N)=O)CCC(C)C2` (stereo not drawn) [MLS000683996], the figure is 13.3 µM; as for `O=C(N/N=C/c1coc2ccccc2c1=O)c1cc2ccccc2o1` [MLS000700471], over 80 µM; as for `O=C(COc1ccc(/C=N/NC(=O)c2ccc(O)cc2)cc1)Nc1cccc([N+](=O)[O-])c1` [MLS000714465], 20 µM. As for `COc1ccc(NC(=S)N(CCCN2CCC(C)CC2)Cc2cccs2)cc1Cl` [MLS000729725], the 50% inhibitory concentration (IC50) was over 80 µM. In turn, `COc1ccc2cc3c(N)nn(C(=O)c4cccc(F)c4)c3nc2c1` [MLS000731294] showed an IC50 of over 80 µM. For `O=C(Nc1cc([N+](=O)[O-])ccc1O)c1cccc(C(=O)Nc2cc([N+](=O)[O-])ccc2O)c1` [MLS001008494], the IC50 stood at 7.05 µM. This lies in the single-digit micromolar range. `CC(=O)N1CCOc2ccc(S(=O)(=O)NCc3ccc(F)cc3)cc21` [MLS001117284] displayed a half-maximal inhibitory concentration (IC50) of over 80 µM. Molecule `CC(C(=O)Nc1ccc(O)cc1C(=O)O)N1C(=O)/C(=C\c2cccs2)SC1=S` (stereo not drawn) [MLS001157883] returned a concentration for half-maximal inhibition (IC50) of 15.7 µM. Regarding `COc1ccc(-c2ccc(NC(=O)c3ccc(Br)o3)cc2)nn1` [MLS001236653], the IC50 is over 80 µM. In turn, `CSc1ccc(CN=Nc2ccc(S(=O)(=O)Nc3ccccc3C(=O)O)cc2[N+](=O)[O-])cc1` [MLS002245633] had an IC50 of 4.99 µM.

The assay is the same for the next values; noted with them: inactive by the depositor's call.
The molecule `Cn1c(=O)[nH]c(=O)c2c1nc(SCCN1CCCCC1)n2CCCc1ccccc1` [3-methyl-7-(3-phenylpropyl)-8-[2-(1-piperidinyl)ethylthio]purine-2,6-dione] came in with an IC50 of 60.5 µM. `O=C(N/N=C/c1cccc([N+](=O)[O-])c1)c1ccc(Br)cc1` [4-bromo-N-[(E)-(3-nitrophenyl)methylideneamino]benzamide]: the IC50 is 21.5 µM. Regarding `O=C(N/N=C/c1ccc(Br)cc1)c1ccc(Br)o1` [5-bromanyl-N-[(E)-(4-bromophenyl)methylideneamino]furan-2-carboxamide], the IC50 came out at 24.1 µM. The molecule `OCCN1CCN(C(=S)c2ccc(Cl)c(Cl)c2)CC1` [(3,4-dichlorophenyl)-[4-(2-hydroxyethyl)-1-piperazinyl]methanethione] returned an IC50 of 22 µM. With `S=C(c1ccc(Br)cc1)N1CCN(Cc2ccccc2)CC1` [(4-bromophenyl)-[4-(phenylmethyl)-1-piperazinyl]methanethione], the IC50 was 54.9 µM. This IC50 lies about 2.5-fold higher than the previous one. Regarding `CCOc1ccc(C(=S)N2CCN(C)CC2)cc1` [(4-ethoxyphenyl)-(4-methyl-1-piperazinyl)methanethione], the IC50 is 44.3 µM. Consider `Cc1ccc(C(=S)N2CCN(Cc3ccccc3)CC2)s1` [(5-methyl-2-thiophenyl)-[4-(phenylmethyl)-1-piperazinyl]methanethione], for which inhibition was half-maximal at 32 µM (IC50).

In turn, `O=C(NCCCn1ccnc1)C(Cc1ccccc1)N1C(=O)c2ccccc2C1=O` (stereo not drawn) [MLS000040026] came in with an IC50 of 72.3 µM. Against the preceding molecule, the IC50 is about 2.3-fold higher. `COc1ccccc1NS(=O)(=O)c1cc(NC(=S)NCCN2CCOCC2)ccc1N1CCOCC1` [MLS000409155] displayed an IC50 of 29.7 µM. Take `O=C(N/N=C/c1ccc(OC(=O)c2cccs2)cc1)c1cccc(F)c1` [MLS000576933]: the 50% inhibitory concentration (IC50) was determined as 25.5 µM. Regarding `OCCN1CCN(C(=S)c2ccc(Br)cc2)CC1` [MLS000577024], the IC50 is 57 µM. For the molecule `CCN1CCN(C(=S)c2ccc(Cl)cc2)CC1` [MLS000594090], the half-inhibitory concentration (IC50) was 25.5 µM. As to `CN(C)c1ccc(C(=S)N2CCN(Cc3ccccc3)CC2)cc1` [MLS000679877], the IC50 was found to be 56.9 µM. This IC50 lies about 2.2-fold higher than the previous one. Consider `N#CNc1nc(O)cc(=O)[nH]1` [MLS000737363], for which the IC50 is 40 µM. `Cc1cc(C)c2nc(-c3ccccn3)cc(C(=O)Nc3ccc(S(=O)(=O)Nc4onc(C)c4C)cc3)c2c1` [MLS000862518] returned an IC50 of 42 µM. As for `CC(C)(C)C(=O)Nc1ccc(C(=O)Nc2cccc(Oc3ccc(C(=O)O)c(C(=O)O)c3)c2)cc1` [MLS001181252], half-maximal inhibition (IC50) required 25.2 µM. Turning to `NS(=O)(=O)c1ccc(NC(=S)N2CCC(Cc3ccccc3)CC2)cc1` [MLS001196239], the IC50 amounted to 76 µM. On to `Cc1c(CC(=O)O)c(=O)oc2c(C)c(OCc3ccc(F)cc3Cl)ccc12` [MLS001213411], for which the midpoint of inhibition, the IC50, lay at 23.8 µM. Same read-out and setting: under `Cc1c(CC(=O)NCCCCCC(=O)O)c(=O)oc2c(C)c3oc4c(c3cc12)CCCC4` [MLS001214831] stands 32.1 µM; under `CCOc1ccc(/C=N/NC(=O)c2cc3c(OC)cccc3[nH]2)cc1` [MLS001216500], 28.5 µM. Still for that read-out and setting: as for `CC(=NNC(=O)c1ccccc1O)c1ccc(NC(=O)Cc2ccccc2)cc1` [MLS001224813], the figure is 29.4 µM. On to `Sc1ncnc2c1ncn2-c1ccc(Cl)cc1` [MLS002638664], for which half-maximal inhibition (IC50) required 64.8 µM.
